Counter-ions that a name gives are not always drawn. Like-named read-outs stand apart in the source and are kept apart here.
What was measured:
[1] = system: human iPSC neurons, astrocytes and microglia treated with 5 μM sAβ42s; experiment: Focused small molecule screen, triple culture (neuron, astrocyte, microglia), rescue from sAβ42s toxicity; assay type: cell-based; settings: for percent rescue from sAβ42s toxicity at 0.78 µM / percent rescue from sAβ42s toxicity at 3.13 µM / percent rescue from sAβ42s toxicity at 12.5 µM / percent rescue from sAβ42s toxicity at 50 µM: Homo sapiens, iPSC
Procedure: (§1) FIGS. 11A-11D show synapse % rescue versus MAP2% rescue (FIGS. 11A-11B) and beta III tubulin % rescue versus MAP2% rescue (FIGS. 11C-11D), in neurons and astrocytes (FIGS. 11A and 11C) or neurons, astrocytes, and microglia (FIGS. 11B and 11D) treated with 5 μM sAβ42s and small molecules from a focused screen of known neuroprotective agents at multiple concentrations (50 μM, 25 μM, 12.5 μM and 6.25 μM (double culture), 50 μM, 12.5 μM, 3.1 μM and 0.78 μM (triple culture). Small molecules that prevented toxicity in dendrites (MAP2), synapses (Synapsin 1/2), cell count (CUX2), or axons ([…]) at or above 30% were considered hits (red dotted line).
Frozen cells were thawed and immediately seeded at a density of 8,000 cells/well of a 384-well plate onto 8-week old neuron-astrocyte co-culture in Microglia media (BrainPhys™ neuronal media (Stem Cell Technologies) supplemented with 1× B27 with vitamin A, 1×N2 Plus Media Supplement (R&D Systems), 20 ng/mL BDNF, 20 ng/mL GDNF, 1 mM creatine, 200 nM L-ascorbic acid, 1 μg/mL mouse laminin, 0.5 mM GlutaMAX™ (Thermofisher), 0.5× penicillin-streptomycin, 1× normocin, 5 ng/mL TGF-β, 100 ng/mL human IL-34, 1.5 μg/mL cholesterol, 1 ng/mL gondoic acid, 100 ng/mL oleic acid, 460 μM thioglycerol, 1× insulin-transferrin-selenium, 25 ng/mL rhM-CSF, 5.4 μg/mL human insulin solution).
(§2) In double (neuron, astrocyte) and triple (neuron, astrocyte, microglia) cultures, each small molecule listed in Table 1 was tested in the AD model paradigm at up to four concentrations. Molecules that characterized ≥30% rescue in any of the four measurements of dendrites area (MAP2), synapses count (synapsin 1/2), or cell count (CUX2), or axon area (Beta III Tubulin; “BT3”)) were classified as hits (FIGS. 11A-11D, Table 2, and Table 3).

[2] = system: human iPSC neurons and astrocytes treated with 5 μM sAβ42s; experiment: Focused small molecule screen, double culture (neuron, astrocyte), rescue from sAβ42s toxicity, high content imaging; assay type: cell-based; settings: for % B3T rescue / % Cux2 rescue / % MAP2 rescue / % Synapse rescue / percent rescue from sAβ42s toxicity at 25 µM / percent rescue from sAβ42s toxicity at 50 µM / percent rescue from sAβ42s toxicity at 6.25 µM: double culture, 5 μM sAβ42s; for percent rescue from sAβ42s toxicity at 25 µM / percent rescue from sAβ42s toxicity at 50 µM / percent rescue from sAβ42s toxicity at 6.25 µM: Homo sapiens, iPSC
Procedure: as §1
Neurons from both NSC lines were evaluated by immunofluorescence staining. Briefly, cells were fixed with 4% PFA and 4% sucrose at room temperature for 20 minutes using Bravo automation. Fixed cells were then washed 2 times with PBS using Biotek 406 microplate washer (Beckman Coulter), followed by permeabilization and blocking by incubation with a solution containing 1×PBS, 0.1% Triton X-100, 2% donkey serum, and 1% BSA at room temperature for 30 minutes. Blocking solution was removed and cells were incubated with primary antibodies in blocking solution overnight at 4° C. After washing 6 times with PBS on Biotek 406 cell plate washer (Beckman Coulter), cells were then incubated with fluorophore-conjugated secondary antibodies for 1 hour at room temperature in the dark to avoid photobleaching. Cells were then washed 6 more times in with PBS before imaging. Fluorescent images were captured using IN Cell 6000 confocal microscope (GE Healthcare Life Sciences). The image analysis was performed with IN Cell 6000 analysis software.
Prior to experimentation, media volume in wells containing neurons was equalized with liquid handling automation (Bravo) in order to ensure precise control of concentrations. All Aβ42 oligomers, anti-Aβ, small molecules, inflammatory cytokines were prepared at 10× concentration and added to Neuronal Culture Media at an appropriate volume. For the repeated dosing experiments, the media were refreshed 50% at each dosing first, before adding Aβ42 oligomers, and/or anti-Aβ antibody at the specified final concentration.
as §2

[3] = 0.78 μM compound, read-out: % B3T rescue
[4] = 0.78 μM compound, read-out: % MAP2 rescue
[5] = 0.78 μM compound, read-out: % Synapse rescue
[6] = 25 μM compound, read-out: % B3T rescue
[7] = 25 μM compound, read-out: % Cux2 rescue
[8] = 25 μM compound, read-out: % MAP2 rescue
[9] = 25 μM compound, read-out: % Synapse rescue
[10] = 50 μM compound, read-out: % B3T rescue
[11] = 50 μM compound, read-out: % Cux2 rescue
[12] = 50 μM compound, read-out: % MAP2 rescue
[13] = 50 μM compound, read-out: % Synapse rescue

## CC1=NN(c2ccc(C(=O)O)cc2)C(=O)/C1=C\c1ccc(-c2cc(C)c(C)cc2[N+](=O)[O-])o1 [C 646]
[1]; 0.78 μM compound
  % B3T rescue: 27%
  % MAP2 rescue: 37%
  % Synapse rescue: 28%
[1]; 12.50 μM compound
  % B3T rescue: 42%
  % MAP2 rescue: 41%
  % Synapse rescue: 38%
[1]; 50.00 μM compound
  % B3T rescue: 53%
  % MAP2 rescue: 37%
  % Synapse rescue: 39%
[2]; 50 μM compound
  % B3T rescue: 49%
  % Cux2 rescue: 25%
  % MAP2 rescue: 54%
  % Synapse rescue: 19%

## COc1cccc2c1C(=O)c1c(O)c3c(c(O)c1C2=O)C[C@@](O)(C(C)=O)C[C@@H]3O[C@H]1C[C@H](N)[C@H](O)[C@H](C)O1 [Daunorubicin hydrochloride]
[1]; [3]
  percent rescue from sAβ42s toxicity at 0.78 µM: 68%
[1]; [4]
  percent rescue from sAβ42s toxicity at 0.78 µM: 74%
[1]; [5]
  percent rescue from sAβ42s toxicity at 0.78 µM: 52%
[2]; [6]
  percent rescue from sAβ42s toxicity at 25 µM: 73%
[2]; [7]
  percent rescue from sAβ42s toxicity at 25 µM: -23%
[2]; [8]
  percent rescue from sAβ42s toxicity at 25 µM: -122%
[2]; [9]
  percent rescue from sAβ42s toxicity at 25 µM: -27%
[2]; [10]
  percent rescue from sAβ42s toxicity at 50 µM: 101%
[2]; [11]
  percent rescue from sAβ42s toxicity at 50 µM: -39%
[2]; [12]
  percent rescue from sAβ42s toxicity at 50 µM: -124%
[2]; [13]
  percent rescue from sAβ42s toxicity at 50 µM: -27%

## N#Cc1ccnc(Nc2cc(C3CCN(C4COC4)CC3)cc(N3CCC(F)(F)C3)n2)c1 [GNE-3511]
[1]; [3]
  percent rescue from sAβ42s toxicity at 0.78 µM: 85%
[1]; [4]
  percent rescue from sAβ42s toxicity at 0.78 µM: 91%
[1]; [5]
  percent rescue from sAβ42s toxicity at 0.78 µM: 79%
[1]; 3.13 μM compound, read-out: % B3T rescue
  percent rescue from sAβ42s toxicity at 3.13 µM: 81%
[1]; 3.13 μM compound, read-out: % MAP2 rescue
  percent rescue from sAβ42s toxicity at 3.13 µM: 95%
[1]; 3.13 μM compound, read-out: % Synapse rescue
  percent rescue from sAβ42s toxicity at 3.13 µM: 77%
[1]; 12.50 μM compound, read-out: % B3T rescue
  percent rescue from sAβ42s toxicity at 12.5 µM: 82%
[1]; 12.50 μM compound, read-out: % MAP2 rescue
  percent rescue from sAβ42s toxicity at 12.5 µM: 102%
[1]; 12.50 μM compound, read-out: % Synapse rescue
  percent rescue from sAβ42s toxicity at 12.5 µM: 81%
[1]; 50.00 μM compound, read-out: % B3T rescue
  percent rescue from sAβ42s toxicity at 50 µM: 65%
[1]; 50.00 μM compound, read-out: % MAP2 rescue
  percent rescue from sAβ42s toxicity at 50 µM: 66%
[1]; 50.00 μM compound, read-out: % Synapse rescue
  percent rescue from sAβ42s toxicity at 50 µM: 56%
[2]; 6.25 μM compound, read-out: % B3T rescue
  percent rescue from sAβ42s toxicity at 6.25 µM: 15%
[2]; 6.25 μM compound, read-out: % Cux2 rescue
  percent rescue from sAβ42s toxicity at 6.25 µM: 18%
[2]; 6.25 μM compound, read-out: % MAP2 rescue
  percent rescue from sAβ42s toxicity at 6.25 µM: 32%
[2]; 6.25 μM compound, read-out: % Synapse rescue
  percent rescue from sAβ42s toxicity at 6.25 µM: 7%
[2]; [6]
  percent rescue from sAβ42s toxicity at 25 µM: 17%
[2]; [7]
  percent rescue from sAβ42s toxicity at 25 µM: 36%
[2]; [8]
  percent rescue from sAβ42s toxicity at 25 µM: 49%
[2]; [9]
  percent rescue from sAβ42s toxicity at 25 µM: 14%
[2]; [10]
  percent rescue from sAβ42s toxicity at 50 µM: 58%
[2]; [11]
  percent rescue from sAβ42s toxicity at 50 µM: 81%
[2]; [12]
  percent rescue from sAβ42s toxicity at 50 µM: 87%
[2]; [13]
  percent rescue from sAβ42s toxicity at 50 µM: 47%

## N#CC(c1ccnc(NCCc2cccnc2)n1)c1nc2ccccc2s1 (centres unmarked) [AS601245]
[1]; 3.13 μM compound
  % B3T rescue: 18%
  % MAP2 rescue: 54%
  % Synapse rescue: 17%
[1]; 12.50 μM compound
  % B3T rescue: 26%
  % MAP2 rescue: 74%
  % Synapse rescue: 26%
[1]; 50.00 μM compound
  % B3T rescue: 44%
  % MAP2 rescue: 95%
  % Synapse rescue: 45%
[2]; 6.25 μM compound
  % B3T rescue: 14%
  % Cux2 rescue: 9%
  % MAP2 rescue: 49%
  % Synapse rescue: 37%
[2]; 12.5 μM compound
  % B3T rescue: 20%
  % Cux2 rescue: 13%
  % MAP2 rescue: 67%
  % Synapse rescue: 57%
[2]; 25 μM compound
  % B3T rescue: 11%
  % Cux2 rescue: 32%
  % MAP2 rescue: 73%
  % Synapse rescue: 36%
[2]; 50 μM compound
  % B3T rescue: −16%
  % Cux2 rescue: 123%
  % MAP2 rescue: 64%
  % Synapse rescue: 19%
[2]; double and triple cultures
  protection in focused screens: protective to a lesser extent

## N#C/C(=C\c1ccc(O)c(O)c1)C(=O)OCCc1cccs1 [2-TEDC]
[1]; 3.13 μM compound
  % B3T rescue: 40%
  % MAP2 rescue: 22%
  % Synapse rescue: 15%
[1]; 12.50 μM compound
  % B3T rescue: 43%
  % MAP2 rescue: 25%
  % Synapse rescue: 17%
[1]; 50.00 μM compound
  % B3T rescue: 73%
  % MAP2 rescue: 48%
  % Synapse rescue: 40%
[2]; 50 μM compound
  % B3T rescue: 31%
  % Cux2 rescue: 16%
  % MAP2 rescue: 22%
  % Synapse rescue: 10%

## CN1C(=O)C(Cc2c[nH]c3ccccc23)NC1=S (centres unmarked) [Necrostatin-1]
[2]; 50 μM compound
  % B3T rescue: 11%
  % Cux2 rescue: 10%
  % MAP2 rescue: 37%
  % Synapse rescue: 15%

## O=c1cc(-c2ccccc2)oc2c(O)c(O)ccc12 [7,8-Dihydroxyflavone]
[2]; [10]
  percent rescue from sAβ42s toxicity at 50 µM: -14%
[2]; [11]
  percent rescue from sAβ42s toxicity at 50 µM: 42%
[2]; [12]
  percent rescue from sAβ42s toxicity at 50 µM: 6%
[2]; [13]
  percent rescue from sAβ42s toxicity at 50 µM: -2%

## CN(C)[C@@H]1C(O)=C(C(N)=O)C(=O)[C@@]2(O)C(O)=C3C(=O)c4c(O)ccc(Cl)c4[C@@H](O)[C@H]3C[C@@H]12 [Demeclocydine hydrochloride, Demeclocycline hydrochloride]
[2]; [6]
  percent rescue from sAβ42s toxicity at 25 µM: 35%
[2]; [7]
  percent rescue from sAβ42s toxicity at 25 µM: 6%
[2]; [8]
  percent rescue from sAβ42s toxicity at 25 µM: 23%
[2]; [9]
  percent rescue from sAβ42s toxicity at 25 µM: 15%
[2]; [10]
  percent rescue from sAβ42s toxicity at 50 µM: 63%
[2]; [11]
  percent rescue from sAβ42s toxicity at 50 µM: 33%
[2]; [12]
  percent rescue from sAβ42s toxicity at 50 µM: 39%
[2]; [13]
  percent rescue from sAβ42s toxicity at 50 µM: 27%

## O=C1Nc2ccc(I)cc2/C1=C/c1cc(Br)c(O)c(Br)c1 [GW 5074]
[2]; 6.25 μM compound
  % B3T rescue: 16%
  % Cux2 rescue: 95%
  % MAP2 rescue: 17%
  % Synapse rescue: 8%
[2]; 12.5 μM compound
  % B3T rescue: 9%
  % Cux2 rescue: 76%
  % MAP2 rescue: 12%
  % Synapse rescue: 6%
[2]; 25 μM compound
  % B3T rescue: 14%
  % Cux2 rescue: 115%
  % MAP2 rescue: 19%
  % Synapse rescue: 8%
[2]; 50 μM compound
  % B3T rescue: 48%
  % Cux2 rescue: 162%
  % MAP2 rescue: 54%
  % Synapse rescue: 8%
